Row | melting point | SMILES
1 | 153 °C | O=c1nc2n(Cc3ccccn3)nc(N3CCCCCC3)n2c2ccc(Cl)cc12 [Compound 125, 1-(azepan-1-yl)-7-chloro-3-(2-pyridylmethyl)-3H-[1,2,4]triazolo[4,3-a]quinazolin-5-one]
2 | 247 °C | O=c1nc2n(Cc3ccc(Cl)cc3)nc(N3CCCCCC3)n2c2ccc(Br)cc12 [Compound 134, 1-(azepan-1-yl)-7-bromo-3-(4-chlorobenzyl)-3H-[1,2,4]triazolo[4,3-a]quinazolin-5-one]
3 | 224 °C | O=c1nc2n(Cc3ccc(F)cc3)nc(N3CCCCCC3)n2c2ccc(Cl)cc12 [Compound 117, 1-(azepan-1-yl)-7-chloro-3-(4-fluorobenzyl)-3H-[1,2,4)triazolo[4,3-a]quinazolin-5-one]
4 | 225 °C | Cc1ccc2c(c1)c(=O)nc1n(CC=Cc3ccccc3)nc(N3CCCC3)n21 [Compound 158, 7-methyl-3-(3-phenylallyl)-1-(pyrrolidin-1-yl)-3H-[1,2,4]triazolo[4,3-a]quinazolin-5-one]
5 | 196 °C | COc1ccc(CCn2nc(N3CCCCCC3)n3c4ccc(Cl)cc4c(=O)nc23)cc1 [Compound 128, 1-(azepan-1-yl)-7-chloro-3-[2-(4-methoxyphenyl)ethyl)-3H-[1,2,4]triazolo[4,3-a]quinazolin-5-one]
6 | 238 °C | O=C(Cn1nc(N2CCCCCC2)n2c3ccc(Cl)cc3c(=O)nc12)c1ccc(Cl)cc1 [Compound 132, 1-(azepan-1-yl)-7-chloro-3-[2-(4-chlorophenyl)-2-oxoethyl)-3H-[1,2,4]triazolo[4,3-a]quinazolin-5-one]
7 | 293 °C | N#Cc1ccc(Cn2nc(N3CCCCCC3)n3c4ccc(Br)cc4c(=O)nc23)cc1 [Compound 136, 4(1-(azepan-1-yl)-7-bromo-5-oxo-5H-[1,2,4]triazolo[4,3-a]-quinazolin-3-ylmethyl)-benzonitrile]
8 | 230 °C | COC(=O)c1ccc(Cn2c(=O)c3cc(C)ccc3n3c(N4CCCC4)nnc23)cc1 [Compound 95, 4(7-Methyl-5-oxo-1-pyrrolidin-1-yl-5H-[1,2,4]triazolo[4,3-a]quinazolin-4-ylmethyl)-benzoic acid methyl ester]
9 | 154 °C | COc1ccc2c(c1)c(=O)n(Cc1ccccc1)c1nnc(N3CCCC3)n21 [Compound 196, 4-Benzyl-7-methoxy-1-pyrrolidin-1-yl-4H-[1,2,4]triazolo[4,3-a]quinazolin-5-one]
10 | 122 °C | O=c1c2cc(Br)ccc2n2c(N3CCCC3)nnc2n1CCSc1ccccc1 [Compound 72, 7-Bromo-4-(2-phenylsulfenyl-ethyl)-1-pyrrolidin-1-yl-4H-[1,2,4]triazolo[4,3-a]quinazolin-5-one]
11 | 232 °C | Cn1c(=O)c2cc(Cl)ccc2n2c(N3CCOCC3)nnc12 [Compound 206, 7-chloro-4-methyl-1-(morpholin-4-yl)-4H-[1,2,4]triazolo[4,3-a]-quinazolin-5-one]
12 | 173 °C | C=CCn1nc(N2CCCCCC2)n2c3ccc(Cl)cc3c(=O)nc12 [Compound 110, 3-Allyl-1-azepan-1-yl-7-chloro-3H-[1,2,4]triazolo[4,3-a]quinazolin-5-one]
13 | 115 °C | CN(C)c1nnc2n(CC=Cc3ccncc3)c(=O)c3cc(Br)ccc3n12 [Compound 87, 7-Bromo-1-dimethylamino-4-(3-pyridin-4-yl-allyl)-4H-[1,2,4]triazolo[4,3-a]quinazolin-5-one]
14 | 165 °C | Cn1c(=O)c2cc(Cl)ccc2n2c(N3CC4(C)CC3CC(C)(C)C4)nnc12 (stereo not drawn) [Compound 211, 7-chloro-4-methyl-1-(1,3,3-trimethyl-6-azabicyclo[3,2,1]oct-6yl)-4H-[1,2,4]triazolo[4,3-a]-quinazolin-5-one]
15 | 234 °C | C#CCn1c(=O)c2cc(Br)ccc2n2c(N(C)C)nnc12 [Compound 88, 7-Bromo-1-dimethylamino-4-prop-2-ynyl-4H-[1,2,4]triazolo[4,3-a]quinazolin-5-one]
16 | 221 °C | Cc1noc(C)c1Cn1c(=O)c2cc(Br)ccc2n2c(N3CCCC3)nnc12 [Compound 64, 7-Bromo-4-(3,5-dimethyl-isoxazol-4-ylmethyl)-1-pyrrolidin-1-yl-4H-[1,2,4]triazolo[4,3-a]quinazolin-5-one]
17 | 138 °C | COc1cccc(Cn2c(=O)c3cc(Cl)ccc3n3c(N4CCCCCC4)nnc23)c1 [Compound 17, 1-(azepan-1-yl)-7-chloro-4-(3-methoxybenzyl)-4H-[1,2,4]triazolo[4,3-a]quinazolin-5-one]
18 | 152 °C | O=c1c2cc(Cl)ccc2n2c(N3CCCCCC3)nnc2n1Cc1ccccn1 [Compound 21, 1-(azepan-1-yl)-7-chloro-4-(2-pyridylmethyl)-4H-[1,2,4]triazolo[4,3-a]quinazolin-5-one]
19 | 230 °C | Cc1ccc2c(c1)c(=O)n(CC=Cc1cccnc1)c1nnc(N3CCSCC3)n21 [Compound 100, 7-Methyl-4-(3-pyridin-3-yl-allyl)-1-thiomorpholin-4-yl-4H-[1,2,4]triazolo[4,3-a]quinazolin-5-one]
20 | 168 °C | COc1cc(Cn2nc(N3CCCC3)n3c4ccc(Br)cc4c(=O)nc23)cc(OC)c1 [Compound 150, 7-bromo-3-(3,5-dimethoxy-benzyl)-1-(pyrrolidin-1-yl)-3H-[1,2,4]triazolo-[4,3-a]quinazolin-5-one]

Row | melting point | SMILES
21 | 153 °C | COc1ccc(Cn2nc(N3CCCCCC3)n3c4ccc(Cl)cc4c(=O)nc23)cc1OC [Compound 124, 1-(azepan-1-yl)-7-chloro-3-(3,4-dimethoxybenzyl)-3H-[1,2,4]triazolo[4,3-a]quinazolin-5-one]
22 | 210 °C | O=c1c2cc(Br)ccc2n2c(N3CC=CC3)nnc2n1Cc1ccccc1 [Compound 186, 4-Benzyl-7-bromo-1-(2,5-dihydro-pyrrol-1-yl)-4H-[1,2,4]triazolo[4,3-a]quinazolin-5-one]
23 | 240 °C | O=c1c2cc(Br)ccc2n2c(N3CCCC3)nnc2n1CCO [Compound 68, 7-Bromo-4-(2-hydroxy-ethyl)-1-pyrrolidin-1-yl-4H-[1,2,4]triazolo[4,3-a]quinazolin-5-one]
24 | 202 °C | Cc1ccc2c(=O)n(Cc3ccccc3)c3nnc(N4CCCCCC4)n3c2c1 [Compound 194, 1-Azepan-1-yl-4-benzyl-8-methyl-4H-[1,2,4]triazolo[4,3-a]quinazolin-5-one]
25 | 276 °C | CN(C)c1nnc2n(Cc3ccc(C#N)cc3)c(=S)c3cc(Br)ccc3n12 [Compound 245, 4-(7-Bromo-1-dimethylamino-5-thioxo-5H-[1,2,4]triazolo[4,3-a]quinazolin-4-ylmethyl)-benzonitrile]
26 | 235 °C | O=c1c2cc(Br)ccc2n2c(N3CCSCC3)nnc2n1Cc1ccccc1 [Compound 181, 4-Benzyl-7-bromo-1-thiomorpholin-4-yl-4H-[1,2,4]triazolo[4,3-a]quinazolin-5-one]
27 | 167 °C | CN(C)c1nnc2n(CC=Cc3ccccc3)c(=O)c3cc(Br)ccc3n12 [Compound 86, 7-Bromo-1-dimethylamino-4-(3-phenyl-allyl)-4H-[1,2,4]triazolo[4,3-a]quinazolin-5-one]
28 | 192 °C | Cn1c(=O)c2cc(Cl)ccc2n2c(N3CCCCC3)nnc12 [Compound 168, 7-chloro-4-methyl-1-(piperidin-1-yl)4H-[1,2,4]triazolo[4,3-a]-quinazolin-5-one]
29 | 171 °C | CN(C)c1nnc2n(Cc3ccccc3)c(=O)c3cc(Br)ccc3n12 [Compound 179, 4-Benzyl-7-bromo-1-dimethylamino-4H-[1,2,4]triazolo[4,3-a]quinazolin-5-one]
30 | 184 °C | COC(=O)C(c1ccccc1)n1c(=O)c2cc(Br)ccc2n2c(N3CCCC3)nnc12 (stereo not drawn) [Compound 73, (7-Bromo-5-oxo-1-pyrrolidin-1-yl-5H-[1,2,4]triazolo[4,3-a]quinazolin-4-yl)-phenyl-acetic acid methyl ester]
31 | 139 °C | Cc1ccc2c(c1)c(=O)n(Cc1cccnc1)c1nnc(N3CCCC3)n21 [Compound 97, 7-Methyl-4-pyridin-3-ylmethyl-1-pyrrolidin-1-yl-4H-[1,2,4)triazolo[4,3-a]quinazolin-5-one]
32 | 230 °C | Nc1ccc2c(c1)c(=O)n(Cc1ccccc1)c1nnc(N3CCCC3)n21 [Compound 225, 7-Amino-4-benzyl-1-pyrrolidin-1-yl-4H-[1,2,4]triazolo[4,3-a]quinazolin-5-one]
33 | 182 °C | Cc1ccc(Cn2nc(N3CCCCCC3)n3c4ccc(Cl)cc4c(=O)nc23)cc1 [Compound 112, 1-Azepan-1-yl-7-chloro-3-(4-methyl-benzyl)-3H-[1,2,4]triazolo[4,3-a]quinazolin-5-one]
34 | 119 °C | Cc1ccc2c(c1)c(=O)n(CC=Cc1ccncc1)c1nnc(N(C)C)n21 [Compound 105, 1-Dimethylamino-7-methyl-4-(3-pyridin-4yl-allyl)-4H-[1,2,4]triazolo[4,3-a]quinazolin-5-one]
35 | 145 °C | Cn1c(=O)c2cc(Cl)ccc2n2c(N3CCCCCC3)nnc12 [Compound 203, 1-(azepan-1-yl)-7-chloro-4-methyl-4H-[1,2,4]triazolo[4,3-a]-quinazolin-5-one]
36 | 238 °C | O=c1c2cc(Br)ccc2n2c(N3CCN(c4ccccc4)CC3)nnc2n1Cc1ccccc1 [Compound 183, 4-Benzyl-7-bromo-1-(4-phenyl-piperazin-1-yl)-4H-[1,2,4]triazolo[4,3-a]quinazolin-5-one]
37 | 110 °C | O=c1c2cc(Br)ccc2n2c(N3CCCC3)nnc2n1CC=Cc1ccccc1 [Compound 58, 7-Bromo-4-(3-phenyl-allyl)-1-pyrrolidin-1-yl-4H-[1,2,4]triazolo[4,3-a]quinazolin-5-one]
38 | > 260 °C | N#Cc1ccc(Cn2nc(N3CCCCCC3)n3c4ccc(Cl)cc4c(=O)nc23)cc1 [Compound 119, 1-(azepan-1-yl)-7-chloro-3-(4-cyanobenzyl)-3H-[1,2,4]triazolo[4,3-a]quinazolin-5-one]
39 | 176 °C | O=c1c2cc(Br)ccc2n2c(N3CCCCCC3)nnc2n1CC=Cc1ccc(Cl)cc1 [Compound 38, 1-Azepan-1-yl-7-bromo-4-[3-(4-chloro-phenyl)-allyl]-4H-[1,2,4]triazolo[4,3-a]quinazolin-5-one]
